PMC6556873, “Rapid Covalent-Probe Discovery by Electrophile-Fragment Screening” (Journal of the American Chemical Society, 2019)
Read-outs that look alike come from different tables or passages of the source.

Tests used:
[1] = in vitro; parameters: species or system CCD841, HEK293; conditions: human, hb2 cells, read-out: HB-2 Cells Viability (%)
[2] = in vitro; parameters: species or system HB2, CCD841; conditions: human, hek293 cells
[3] = in vitro; parameters: species or system HB2, HEK293; conditions: human, ccd841 cells
[4] = molecular target: T1, OTUB2 (OTUB2A) (Homo sapiens, UniProt Q96DC9); parameters: Intact protein LC/MS covalent labelling, fragments in pools of five, 200 uM each, 4 °C; conditions: 24 h, 4 °C, pool of five; 200 µM; covalent
T1 construct: full length residues 1-234, E. coli BL21(DE3)-R3, His tag removed by TEV, construct 27312 Da
T1 sequence (Q96DC9 1-234): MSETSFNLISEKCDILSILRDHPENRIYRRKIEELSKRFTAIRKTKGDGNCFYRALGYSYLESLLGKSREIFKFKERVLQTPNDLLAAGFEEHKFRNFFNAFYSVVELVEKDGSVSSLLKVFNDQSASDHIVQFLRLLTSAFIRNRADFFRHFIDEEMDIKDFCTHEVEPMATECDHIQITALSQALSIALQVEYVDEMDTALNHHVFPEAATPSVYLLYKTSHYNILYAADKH

[5] = molecular target: T2, BSA (Bos taurus, UniProt P02769); parameters: Intact protein LC/MS covalent labelling, fragments in pools of five, 200 uM each, 4 °C; conditions: 24 h, 4 °C, pool of five; 200 µM; covalent
T2 construct: gene ALB

[6] = molecular target: T3, PCAF (Homo sapiens, UniProt Q92831); parameters: Intact protein LC/MS covalent labelling, fragments in pools of five, 200 uM each, 4 °C; conditions: 24 h, 4 °C, pool of five; 200 µM; covalent
T3 construct: gene KAT2B

[7] = molecular target: T4, NNMT (hNNMT) (Homo sapiens, UniProt P40261); parameters: Intact protein LC/MS covalent labelling, fragments in pools of five, 200 uM each, 4 °C; conditions: 24 h, 4 °C, pool of five; 200 µM; covalent
T4 construct: wild type, N-terminal His6 tag kept (no cleavage described), E. coli, construct 31248 Da
T4 sequence (P40261 1-264): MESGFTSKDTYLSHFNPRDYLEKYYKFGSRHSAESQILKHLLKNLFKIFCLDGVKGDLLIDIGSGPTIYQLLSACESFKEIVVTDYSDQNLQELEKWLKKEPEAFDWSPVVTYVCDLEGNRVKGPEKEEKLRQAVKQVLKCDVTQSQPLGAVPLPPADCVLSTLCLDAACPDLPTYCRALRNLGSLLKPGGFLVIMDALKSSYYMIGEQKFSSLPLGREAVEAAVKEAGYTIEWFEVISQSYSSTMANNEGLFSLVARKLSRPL

[8] = molecular target: T5, NUDT7 (Homo sapiens, UniProt P0C024); parameters: Intact protein LC/MS covalent labelling, fragments in pools of five, 200 uM each, 4 °C; conditions: 24 h, 4 °C, pool of five; 200 µM; covalent
T5 construct: residues 14-235, E. coli, pNIC28-Bsa4, N-terminal His6 tag removed by TEV, construct 26672 Da
T5 sequence (P0C024 14-235): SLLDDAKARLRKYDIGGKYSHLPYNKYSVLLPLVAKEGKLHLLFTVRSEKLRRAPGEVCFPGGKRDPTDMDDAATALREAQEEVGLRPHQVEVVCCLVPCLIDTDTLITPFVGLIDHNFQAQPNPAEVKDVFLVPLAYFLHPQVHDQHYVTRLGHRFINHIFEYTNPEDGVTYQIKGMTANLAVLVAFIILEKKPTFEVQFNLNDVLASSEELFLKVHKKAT

T2 sequence (P02769 whole entry, the tested form may be a part): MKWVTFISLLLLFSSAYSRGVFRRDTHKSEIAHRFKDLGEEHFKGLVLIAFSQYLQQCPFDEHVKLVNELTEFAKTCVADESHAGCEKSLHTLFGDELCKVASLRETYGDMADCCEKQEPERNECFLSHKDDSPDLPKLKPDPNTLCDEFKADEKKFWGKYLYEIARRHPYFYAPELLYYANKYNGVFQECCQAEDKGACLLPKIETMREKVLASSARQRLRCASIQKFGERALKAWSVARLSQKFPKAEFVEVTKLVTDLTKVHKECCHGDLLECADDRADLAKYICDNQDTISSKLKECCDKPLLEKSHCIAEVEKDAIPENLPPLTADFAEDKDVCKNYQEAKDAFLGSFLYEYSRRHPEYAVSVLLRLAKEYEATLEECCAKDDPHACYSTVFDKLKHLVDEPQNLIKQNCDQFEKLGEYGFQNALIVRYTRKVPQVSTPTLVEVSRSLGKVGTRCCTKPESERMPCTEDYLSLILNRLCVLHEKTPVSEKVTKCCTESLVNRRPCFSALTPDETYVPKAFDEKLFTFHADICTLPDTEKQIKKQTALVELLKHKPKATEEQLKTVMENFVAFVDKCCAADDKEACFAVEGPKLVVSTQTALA
T3 sequence (Q92831 whole entry, the tested form may be a part): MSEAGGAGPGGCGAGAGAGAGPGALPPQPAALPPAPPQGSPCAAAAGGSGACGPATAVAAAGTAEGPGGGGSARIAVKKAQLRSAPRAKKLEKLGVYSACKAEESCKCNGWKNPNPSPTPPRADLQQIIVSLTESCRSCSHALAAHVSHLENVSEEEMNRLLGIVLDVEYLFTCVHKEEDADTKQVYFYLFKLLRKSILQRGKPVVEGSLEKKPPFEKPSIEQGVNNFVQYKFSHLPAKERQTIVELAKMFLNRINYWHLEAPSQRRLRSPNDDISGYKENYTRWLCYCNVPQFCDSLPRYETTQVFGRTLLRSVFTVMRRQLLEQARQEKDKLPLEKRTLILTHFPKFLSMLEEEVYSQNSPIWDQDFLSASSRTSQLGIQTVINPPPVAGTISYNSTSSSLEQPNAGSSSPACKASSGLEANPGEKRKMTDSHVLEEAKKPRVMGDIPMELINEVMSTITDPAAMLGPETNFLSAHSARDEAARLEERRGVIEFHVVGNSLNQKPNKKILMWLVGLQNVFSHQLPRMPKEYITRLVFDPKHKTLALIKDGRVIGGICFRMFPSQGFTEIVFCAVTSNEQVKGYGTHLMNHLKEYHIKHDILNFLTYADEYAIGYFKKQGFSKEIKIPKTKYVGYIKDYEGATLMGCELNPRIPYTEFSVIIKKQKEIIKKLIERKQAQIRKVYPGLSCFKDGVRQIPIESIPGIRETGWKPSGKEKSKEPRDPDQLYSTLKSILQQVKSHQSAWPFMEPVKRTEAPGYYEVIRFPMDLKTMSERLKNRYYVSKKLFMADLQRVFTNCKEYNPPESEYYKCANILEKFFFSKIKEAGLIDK

Row | SMILES | OTUB2 [4] | BSA [5] | PCAF [6] | NNMT [7] | NUDT7 [8] | viability at 48 h, 10 µM [1] [%] | viability at 48 h, 10 µM [2] [%] | viability at 48 h, 10 µM [3] [%]
1 | C=CC(=O)N1CCNC(=O)C1c1c(F)cccc1Cl (centres unmarked) [PCM-0102490] | 0 | 0 | 0 | 0 | 0 | 98.5 | 104 | 95.5
2 | Cl.O=C(CCl)N1CCN(Cc2ccc(Cl)s2)CC1 [PCM-0102277] | 0.09 | 0.11 | 0 | 0.26 | 0 | 8.6 | 18.2 | 37.3
3 | Cc1oc(NC(=O)CCl)c(C#N)c1C [PCM-0102337] | 0.45 | 0 | 0 | 0.53 | 0 | 56.5 | 82.9 | 56.4
4 | O=C(CCl)NC(=O)NC1CCS(=O)(=O)C1 (centres unmarked) [PCM-0102100] | 0.09 | 0 | 0 | 0 | 0 | 101 | 99.5 | 106
5 | O=C(CCl)NC(=O)c1ccccc1Br [PCM-0102464] | 0 | 0 | 0 | 0 | 0 | 104 | 107 | 113
6 | COc1ccc(C(=O)NC(=O)CCl)cc1 [PCM-0102454] | 0 | 0 | 0 | 0.36 | 0 | 97.1 | 96.7 | 103
7 | O=C(CCl)N1CCC(C(=O)N2CCCC2)CC1 [PCM-0102655] | 0 | 0 | 0 | 0.17 | 0 | 94 | 87 | 78.5
8 | COC(=O)c1c(NC(=O)CCl)sc2c1CCC(C)C2 (centres unmarked) [PCM-0102418] | 0 | 0 | 0 | 0.8 | 0.12 | 40.8 | 56.4 | 88.6
9 | C=CC(=O)N1CCC(c2nccn2C)C1 (centres unmarked) [PCM-0102553] | 0 | 0 | 0 | 0.11 | 0 | 99.3 | 103 | 128
10 | C=CC(=O)N1CCCn2c(cc3ccccc32)C1 [PCM-0102730] | 0.18 | 0 | 0 | 0 | 0 | 104 | 85 | 92.2
11 | O=C(CCl)Nc1cccc(N2CCCC2=O)c1 [PCM-0102179] | 0.47 | 0 | 0 | 0.23 | 0.12 | 20.8 | 1.8 | 52.4
12 | O=C(CCl)N1CCCCC1 [PCM-0102514] | 0 | 0 | 0 | 0 | 0 | 92.8 | 90.8 | 88.1
13 | C=CC(=O)N1CCc2ccccc21 [PCM-0102732] | 0 | 0 | 0 | 0.22 | 0 | 93.4 | 72.5 | 105
14 | CC1(C)C2CCC1(C)C(NC(=O)CCl)C2 (centres unmarked) [PCM-0102315] | 0 | 0.12 | 0 | 0 | 0 | 84.4 | 75.9 | 95
15 | C=CC(=O)N1CCC(CN)CC1.Cl [PCM-0102467] | 0 | 0 | 0 | 0 | 0 | 95.4 | 91 | 105
16 | Cl.O=C(CCl)Nc1cccnc1 [PCM-0102653] | 0 | 0 | 0 | 0 | 0 | 84.6 | 93.3 | 85.6
17 | C=CC(=O)N1CCCC1C1COCCC1(C)O (centres unmarked) [PCM-0102571] | 0 | 0 | 0 | 0 | 0 | 107 | 104 | 107
18 | COc1ccc2nc(NC(=O)CCl)sc2c1 [PCM-0102330] | 0 | 0 | 0 | 0.71 | 1 | 32.7 | 39.7 | 44.6

Second part, led by results:

Row | OTUB2 [4] | BSA [5] | PCAF [6] | NNMT [7] | NUDT7 [8] | SMILES | viability at 48 h, 10 µM [1] [%] | viability at 48 h, 10 µM [2] [%] | viability at 48 h, 10 µM [3] [%]
19 | 0.11 | 0 | 0 | 0.16 | 0 | O=C(CCl)Nc1nc(C2CC2)no1 [PCM-0103076] | 104 | 97.9 | 102
20 | 0.36 | 0 | 0 | 0 | 0 | CC(C)(C)n1ncc2c1CCCC2NC(=O)CCl.Cl (centres unmarked) [PCM-0103046] | 81.5 | 89.3 | 90.9
21 | 0 | 0 | 0 | 0 | 0 | C=CC(=O)N1CCC(C(=O)c2cccs2)CC1 [PCM-0102989] | 97.7 | 102 | 97.9
22 | 0 | 0 | 0 | 0 | 0 | C=CC(=O)NCC1CCCc2sc(C)nc21 (centres unmarked) [PCM-0102952] | 97.6 | 95.2 | 114
23 | 0.09 | 0 | 0 | 0.13 | 0 | CCOC(=O)C1CCCN(C(=O)CCl)C1 (centres unmarked) [PCM-0103015] | 104 | 98.8 | 98.8
24 | 0.64 | 0 | 0 | 0 | 0.1 | COc1ccc(Cl)cc1C(=O)NNC(=O)CCl [PCM-0102763] | 73.6 | 25.1 | 13.4
25 | 0 | 0 | 0 | 0 | 0 | C=CC(=O)Nc1cc(F)ccc1C [PCM-0102917] | 103 | 76.3 | 106
26 | 0 | 0 | 0 | 0.22 | 0.45 | COc1ccc(C2=CCN(C(=O)CCl)CC2)cc1 [PCM-0102929] | 59.4 | 71 | 90.4
27 | 0 | 0 | 0 | 0 | 0 | CC1CCCN(C(=O)CCl)C1 (centres unmarked) [PCM-0102867] | 102 | 103 | 104
28 | 0 | 0 | 0 | 0 | 0.09 | CC(C)(C)C(NC(=O)CCl)c1cccs1 (centres unmarked) [PCM-0102773] | 86.9 | 63.6 | 72.8
